The source of these data is a melting point compilation (Tetko et al.; mined from patent text by program, amines drawn as free bases though some values may be those of a salt).

What is called melting point is the temperature of the solid-liquid transition. In the case of `O=C1NC(=O)C(Cc2ccc(OCCON=Cc3cncc(-c4ccccc4)c3)cc2)S1` (stereo unspecified), the melting point is 160 to 161 °C. Then `O=c1c(Br)c(OCc2ccccc2Cl)ccn1Cc1ccccc1`, with 143 to 146 °C. The result for `Cc1ccc(S(=O)(=O)NC(CN)C(=O)O)cc1` (stereo unspecified) reads 225 to 226 °C; that for `CS(=O)(=O)c1cccnc1CC1C(=O)C2(COc3cc4c(cc32)OCCO4)c2ccccc21` (stereo unspecified), > 250 °C; that for `CC(C)(C)OC(=O)N1CCC(OCc2ccccc2)C1CC(O)Cn1cnc2ccc(F)c(F)c2c1=O` (stereo unspecified), 218 °C.

In turn, `COc1ccc(C2=CCN(Cc3ccccc3)CC2)cc1OC` came in with a melting point of 94 to 96 °C. Turning to `O=C1N(c2ccc(Cl)cc2Cl)Cc2cnc(Nc3ccccc3)nc2N1c1cccc(CCO)c1`, the melting point lay within 213 to 217 °C.

`CC(C)COc1ccc(-c2nc3c(C(=O)O)cccc3[nH]2)cc1C#N` showed a melting point of 299 to 302 °C.

`C=C(C)OC(=O)N1c2cc(Cl)ccc2NC(=S)[C@@H]1C` returned a melting point of 148 to 150 °C.

`COc1ccc(-c2nc3scc(-c4cc(C(C)(C)C)c(O)c(C(C)(C)C)c4)n3c2-c2ccc(OC)cc2)cc1` yielded a melting point of 236 to 237 °C.

For `Nc1nc(N)c2cc(CCc3ccc(C(=O)N[C@@H](CCC(=O)O)C(=O)O)cc3)cnc2n1`, the melting point was > 250 °C.

Compound `CCN1C(=O)C(OC(=O)C(C)(C)C)=C(c2c(C)cc(C)cc2C)C1=O` gave a melting point of 91 °C.

Take `CN(C(=O)c1cc(=O)n(C)c2ccc(C(O)(c3ccc(Cl)cc3)c3cncn3C)cc12)c1cccc(Cl)c1` (stereo unspecified): the melting point is 218 °C. Regarding `CCOC(=O)C(N)=Cc1ccc(OCC(O)CNC(C)(C)C)cc1` (stereo unspecified), the melting point is 99 to 100 °C. Then `COc1ccc(NC(=O)c2cc(O[Si](C)(C)C(C)(C)C)ccc2NC(=O)c2ccc(C(C)(C)C)cc2)cc1`, with 207 °C; and `COc1ccc2oc(CC3CCCCC3)c(CC#N)c2c1`, with 73 °C; and `Cn1ncnc1COc1nn2c(-c3ccoc3)nncc2c1-c1ccccc1F`, with 148 °C. Then `O=C1c2ccccc2CN1C1CCN(CCCCC2(C(=O)NCC(F)(F)F)c3ccccc3-c3ccccc32)CC1`, with 143 to 146 °C. The result for `Cc1cc2c(-c3ccccc3)c(CC(=O)NCc3ccccc3)n(C)c(=O)c2cc1C` reads 222 °C. In the case of `O=C(OCCN1CCN(c2cccc(C(F)(F)F)c2)CC1)c1sccc1Nc1ccnc2cc(Cl)ccc12`, the melting point came to 80 °C.

`CCOC(=O)C1[C@@H]2[C@@H](O)[C@@H]3O[C@H](c4ccc(C(C)(C)C)cc4)OC[C@H]3O[C@H]12` (stereo partly specified) yielded a melting point of 113 to 116 °C.

The compound `Cc1noc(NS(=O)(=O)c2ccccc2-c2ccc(-c3ccccn3)cc2)c1C` came in with a melting point of 85 to 90 °C. Then `N#Cc1cccc(N=C(NCC(=O)O)NCC2CCCCC2)c1`, with 80 to 83 °C.

In turn, `N#CCc1cc(N)c(F)cc1Cl` registered a melting point of 85 to 86 °C. The result for `CCCNC(=S)Nc1sccc1C(=O)OC` reads 123 to 126 °C. Then `CCCN(Cc1ccc(-c2ccccc2-c2nnn[nH]2)cc1)C1(C(=O)O)C=NSN1` (stereo unspecified), with 97 to 98 °C; and `O=C1N(c2ccccc2)CC(CCl)C1(Cl)Cl` (stereo unspecified), with 133 to 134 °C; and `CC(=O)NC(=C(C)C(=O)O)c1ccccc1`, with 190 °C.

For the compound `C=CCc1cc(C(C)=O)c(NC(C)=O)cc1O`, the melting point lay in the range of 172 to 174 °C. As for `CCCC[C@H](NS(=O)(=O)c1ccc(Br)cc1)C(=S)Nc1ccc(CCC(=O)O)cc1`, the melting point fell in the range of 174 to 176 °C.

For the compound `COCOc1ccc(-c2ccc(OCOC)c(F)c2)cc1F`, the melting point fell in the range of 76.3 to 77.3 °C. Take `O=Cc1nc(C(Cl)Cl)cnc1N1C(=O)c2ccccc2C1=O`: the melting point lay within 145 to 146 °C. The result for `CCCNc1ccc(C(=O)N2CCCC(CC(=O)NC(C)C)c3ccccc32)c(Cl)c1` (stereo unspecified) reads 140 to 143 °C. As to `CC(=O)N(C)C(CCCC(=O)O)C(=O)N(C)c1c(I)cc(I)c(C(=O)O)c1I` (stereo unspecified), the melting point is 194 to 204 °C. `NS(=O)(=O)Oc1ccc(F)cc1`: the melting point lay in the range of 82.5 to 85.5 °C. The result for `CS(=O)(=O)Nc1ccc(OCC2CCNCC2)cc1` reads 180 to 183 °C; that for `OCc1ccc(Cl)cc1Cc1ccccc1`, 46.5 to 49 °C. The result for `CC(=O)Nc1ccc2c(c1)OC(C)O2` (stereo unspecified) reads 155 to 156 °C. Then `COC(=O)c1ccc(CN2CCC(=O)C(C(c3ccccc3)c3ccccc3)C2)cc1` (stereo unspecified), with 107 to 108 °C; and `CCn1c(COC(N)=O)nc(C(C)C)c1Sc1cc(C#N)cc(C#N)c1`, with 174 to 175 °C; and `CC1(C)CC(Nc2nccc3ccccc23)CC(C)(C)N1`, with 133 °C.

In turn, `CNC(C)=C(C(=O)OC)C(=O)c1ccccc1` yielded a melting point of 75 to 77 °C. Then `CCn1nc(-c2cccc(F)c2)c(C(C)=O)c(Nc2cccc3ncccc23)c1=O`, with 205 to 207 °C; and `COc1ccc2c(c1)CCN(C=O)C2c1cc(Cl)nc(Cl)c1` (single isomer, unassigned; (-)), with 156 to 158 °C; and `CCCCCCC(C)(C)c1cc(O)c2c(c1)OCCC1=C2CC(C)CC1` (stereo unspecified), with 134 to 136 °C. The result for `C#CCc1c(C)nc2c(OCc3ccccc3CO)cccn12` reads 137 to 138 °C.

Regarding `COc1ccc(C2CC(=O)Nc3ccccc3C(=O)C2)cc1` (stereo unspecified), the melting point was in the range of 138 to 140 °C. The result for `O=S(=O)(c1ccccc1)n1ccc2c(Cl)ncnc21` reads 163 to 167 °C.

Consider `NC(=O)CNCc1noc([C@H](CCCC2CCCCC2)CC(=O)NO)n1`, for which the melting point fell in the range of 60 to 70 °C. Then `CC(C)(C)NC(=O)c1nn(-c2ccc(Cl)cc2)c2c1[C@@H]1CC[C@H]2C1`, with 159 to 162 °C; and `CNC(=O)C1CN(CC(=O)Nc2c(Cl)cc(C(C)=O)cc2Cl)CCN1CCCCN(c1ccc(F)cc1)c1ccc(F)cc1` (stereo unspecified), with 85 °C; and `Cc1cc(Nc2cc(F)c(F)cc2C(=O)O)n(-c2ccccn2)n1`, with 247 to 248 °C. Then `O=C1NC(=O)C(=Cc2ccc3c(c2)c2ccccc2n3Cc2ccc(-c3ccccc3)cc2)S1`, with > 250 °C; and `Cc1cc(C)c2nc(C3CC3)n(Cc3ccc(C4(C(=O)O)CC=CC4)s3)c2n1`, with 184 to 185 °C. Then `CCCCc1nc2cccc(C(=O)O)c2n1Cc1ccc(-c2ccccc2-c2nc(=O)o[nH]2)cc1`, with 165 to 167 °C; and `O=c1nc(-c2ccccn2)sc2ccc(Br)cc12`, with 253 to 254 °C; and `O=C(c1ccc(F)cc1)C1CCN(CCCc2nc3ccccc3c(=O)[nH]2)CC1`, with 184 °C. The compound `CCCCc1nc(Cl)c(C(=O)OC(C)C)n1Cc1ccc2oc(-c3ccccc3-c3nnn[nH]3)c(Br)c2c1` showed a melting point of 105 to 106 °C. Then `N#Cc1sc(-c2ccccc2)nc1N`, with 178 to 179 °C.

Consider `Nc1ccc2c(c1)S(=O)(=O)c1ccccc1-2`, for which the melting point lay within 261 to 264 °C. The result for `Nc1ccc(S(=O)(=O)N2CCN(c3ccccn3)CC2)cc1` reads 208 to 210 °C.
